Results published in ChEMBL document CHEMBL1201862, “PubChem BioAssay data set” (2004).
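Protocol summary: plate cells (96-well), add compound at 5 concentrations, incubate 48 h, interpolate endpoints linearly. At the GI50, growth is halved.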 Activity calls are given as the source filed them. No stated cut-off is given here; in the data, active = GI50 up to about 1.1 µM and inactive = higher.

Assays:
Assay in all cases: NCI anticancer screen, dose series, 48 h
[1] = system: RXF 393
[2] = system: CAKI-1
[3] = system: SNB-75
[4] = system: RXF 631
[5] = system: Malme-3M
[6] = system: A549
[7] = system: K562
[8] = system: SF-295
[9] = system: HCT-116
[10] = system: NCI-H522
[11] = system: UACC-257
[12] = system: SF-539
[13] = system: OVCAR-3
[14] = system: DMS-273
[15] = system: IGROV-1
[16] = system: OVCAR-8
[17] = system: SR
[18] = system: ACHN
[19] = system: HOP-62
[20] = system: HT-29
[21] = system: SW-620
[22] = system: DMS-114
[23] = system: M19-MEL
[24] = system: NCI-H23
[25] = system: HCT-15
[26] = system: LOX IMVI
[27] = system: SK-MEL-2
[28] = system: UACC-62
[29] = system: UO-31
[30] = system: EKVX
[31] = system: A498
[32] = system: SF-268
[33] = system: MOLT-4
[34] = system: XF498
[35] = system: HCC 2998
[36] = system: COLO 205
[37] = system: SNB-19
[38] = system: SN12C
[39] = system: NCI-H226
[40] = system: SK-MEL-5
[41] = system: LXFL 529
[42] = system: HL-60
[43] = system: OVCAR-4
[44] = system: KM12
[45] = system: 786-0
[46] = system: TK-10
[47] = system: CCRF-CEM
[48] = system: U-251
[49] = system: RPMI-8226
[50] = system: DLD-1
[51] = system: M14
[52] = system: KM-20L2
[53] = system: DU-145
[54] = system: OVCAR-5
[55] = system: MCF7
[56] = system: NCI/ADR-RES
[57] = system: Hs-578T
[58] = system: MDA-MB-435
[59] = system: HOP-18
[60] = system: T47D
[61] = system: MDA-N
[62] = system: HOP-92
[63] = system: PC-3
[64] = system: BT-549
[65] = system: MDA-MB-231
[66] = system: SNB-78
[67] = system: SK-MEL-28
[68] = system: NCI-H460
[69] = system: SK-OV-3

CNS(=O)(=O)NN(C)S(=O)(=O)c1ccc(Cl)cc1
GI50 [1]: > 100 µM (inactive)
GI50 [2]: > 100 µM (inactive)
GI50 [3]: > 100 µM (inactive)
GI50 [4]: > 100 µM (inactive)
GI50 [5]: > 100 µM (inactive)
GI50 [6]: > 100 µM (inactive)
GI50 [7]: > 100 µM (inactive)
GI50 [8]: > 100 µM (inactive)
GI50 [9]: > 100 µM (inactive)
GI50 [10]: > 100 µM (inactive)
GI50 [11]: > 100 µM (inactive)
GI50 [12]: > 100 µM (inactive)
GI50 [13]: > 100 µM (inactive)
GI50 [14]: > 100 µM (inactive)
GI50 [15]: > 100 µM (inactive)
GI50 [16]: > 100 µM (inactive)
GI50 [17]: > 100 µM (inactive)
GI50 [18]: > 100 µM (inactive)
GI50 [19]: > 100 µM (inactive)
GI50 [20]: > 100 µM (inactive)
GI50 [21]: > 100 µM (inactive)
GI50 [22]: > 100 µM (inactive)
GI50 [23]: > 100 µM (inactive)
GI50 [24]: > 100 µM (inactive)
GI50 [25]: > 100 µM
GI50 [26]: > 100 µM (inactive)
GI50 [27]: > 100 µM (inactive)
GI50 [28]: > 100 µM (inactive)
GI50 [29]: > 100 µM (inactive)
GI50 [30]: 98.4 µM (inactive)
GI50 [31]: > 100 µM (inactive)
GI50 [32]: > 100 µM (inactive)
GI50 [33]: > 100 µM (inactive)
GI50 [34]: > 100 µM (inactive)
GI50 [35]: > 100 µM (inactive)
GI50 [36]: > 100 µM (inactive)
GI50 [37]: > 100 µM (inactive)
GI50 [38]: > 100 µM (inactive)
GI50 [39]: > 100 µM (inactive)
GI50 [40]: > 100 µM (inactive)
GI50 [41]: > 100 µM (inactive)
GI50 [42]: > 100 µM (inactive)
GI50 [43]: > 100 µM (inactive)
GI50 [44]: > 100 µM (inactive)
GI50 [45]: > 100 µM (inactive)
GI50 [46]: > 100 µM (inactive)
GI50 [47]: > 100 µM (inactive)
GI50 [48]: 83 µM (inactive)
GI50 [49]: > 100 µM (inactive)
GI50 [50]: > 100 µM (inactive)
GI50 [51]: > 100 µM (inactive)
GI50 [52]: > 100 µM (inactive)

CC(C)=CCC1=C(O)C(=O)c2ccccc2C1=O [LAPACHOL]
GI50 [53]: 36.9 µM (inactive)
GI50 [54]: > 100 µM (inactive)
GI50 [2]: 55 µM (inactive)
GI50 [3]: 57.1 µM (inactive)
GI50 [55]: 24.4 µM (inactive)
GI50 [4]: 22.2 µM (inactive)
GI50 [56]: 32.3 µM (inactive)
GI50 [57]: 34.8 µM (inactive)
GI50 [58]: 18.5 µM (inactive)
GI50 [59]: 15.2 µM (inactive)
GI50 [60]: 61.4 µM (inactive)
GI50 [22]: 60.3 µM (inactive)
GI50 [27]: 35.5 µM (inactive)
GI50 [61]: 17.4 µM (inactive)
GI50 [62]: 79.6 µM (inactive)
GI50 [30]: 78.7 µM (inactive)
GI50 [31]: 60.4 µM (inactive)
GI50 [34]: 42.4 µM (inactive)
GI50 [63]: 2.92 µM (inactive)
GI50 [35]: 86.3 µM (inactive)
GI50 [64]: 51.8 µM (inactive)
GI50 [39]: 53.8 µM (inactive)
GI50 [40]: 11.7 µM (inactive)
GI50 [65]: 8.53 µM (inactive)
GI50 [43]: 33.7 µM (inactive)
GI50 [66]: > 100 µM (inactive)

Cc1ccc(C2CC(c3ccc([N+](=O)[O-])cc3)=Nc3ccccc3S2)cc1 (stereo unspecified)
GI50 [1]: 12.1 µM (inactive)
GI50 [54]: 44.5 µM (inactive)
GI50 [2]: 31 µM (inactive)
GI50 [3]: 21.4 µM (inactive)
GI50 [4]: 24.5 µM (inactive)
GI50 [5]: 50.8 µM (inactive)
GI50 [6]: 22.3 µM (inactive)
GI50 [7]: 13.4 µM (inactive)
GI50 [67]: 29 µM (inactive)
GI50 [8]: 27.4 µM (inactive)
GI50 [10]: 20.1 µM (inactive)
GI50 [11]: 28.6 µM (inactive)
GI50 [12]: 26.2 µM (inactive)
GI50 [13]: 24.7 µM (inactive)
GI50 [59]: 48.4 µM (inactive)
GI50 [68]: 36.9 µM (inactive)
GI50 [15]: 23.4 µM (inactive)
GI50 [16]: 22.5 µM (inactive)
GI50 [18]: 27.6 µM (inactive)
GI50 [19]: 61.5 µM (inactive)
GI50 [20]: 26.6 µM (inactive)
GI50 [21]: 20 µM (inactive)
GI50 [69]: 89.9 µM (inactive)
GI50 [22]: 16.5 µM (inactive)
GI50 [23]: 18.6 µM (inactive)
GI50 [24]: 19.5 µM (inactive)
GI50 [25]: 18 µM
GI50 [26]: 15.3 µM (inactive)
GI50 [27]: 30.3 µM (inactive)
GI50 [28]: 32.8 µM (inactive)
GI50 [29]: 18.9 µM (inactive)
GI50 [30]: 42.6 µM (inactive)
GI50 [31]: 16.3 µM (inactive)
GI50 [32]: 24.4 µM (inactive)
GI50 [33]: 15.1 µM (inactive)
GI50 [34]: 19 µM (inactive)
GI50 [35]: 20.3 µM (inactive)
GI50 [36]: 41.8 µM (inactive)
GI50 [37]: 23 µM (inactive)
GI50 [38]: 25.5 µM (inactive)
GI50 [39]: 44.6 µM (inactive)
GI50 [40]: 17.1 µM (inactive)
GI50 [41]: 12.1 µM (inactive)
GI50 [42]: 19.8 µM (inactive)
GI50 [43]: 23.7 µM (inactive)
GI50 [44]: 18.4 µM (inactive)
GI50 [45]: 14.6 µM (inactive)
GI50 [46]: 34.8 µM (inactive)
GI50 [47]: 12.9 µM (inactive)
GI50 [49]: 15.6 µM (inactive)
GI50 [50]: 25.5 µM (inactive)
GI50 [51]: 28.3 µM (inactive)
GI50 [52]: 34.3 µM (inactive)
